From patent US20250223303A1, “TRICYCLIC BORONIC ACID DERIVATIVE, AND PREPARATION METHOD THEREFOR AND APPLICATION THEREOF” (priority 2021, published 2025)

Key:
[1] = molecular target: T1, IMP-1 (Serratia marcescens, UniProt P52699); assay: Enzyme activity test (FC5 fluorescent substrate), IMP-1; assay type: biochemical; conditions: enzyme 20 pM, substrate FC5 15 μM
T1 construct: purchased GenScript Biotech Co., Ltd
Description: (§1) Compound stock solution: the compound was prepared as a 50 mM DMSO stock solution. […] After aliquoting, the compound stock solutions were stored at −20° C.
(§2) Preparation and storage of antibiotic substrate stock solution: antibiotic fluorescent substrate FC5 was synthesized internally and prepared as a 2 mM stock solution, which was stored at −20° C. after aliquoting.
(§3) Storage of β-lactamases: each […] was synthesized by GenScript Biotech Co., Ltd., and stored at −80° C. after aliquoting to avoid repeated freezing and thawing.
(§4) Preparation of enzyme activity reaction buffer: SBL buffer: PBS pH 7.4, 0.01% (v/v) Triton X-100; MBL buffer: 50 Mm HEPES in PBS pH 7.2, 1 μM ZnSO4, 1 μg/mL BSA, 0.010% v/v Triton X-100
(§5) a) The compound to be tested and buffer were taken out and warmed to room temperature.
(§6) b) Each compound was diluted with DMSO and buffer to the initial experimental concentration (Table 2), and then the compound was diluted 3-fold for a total of 10 concentrations.
(§7) c) Diluted compounds were added to wells 1 to 20 of a 384-well black plate at 2 replicate wells per concentration, 5 μL per well. 5 µL of DMSO was added to wells 21 to 24.
(§8) d) Each enzyme was diluted to the experimental concentration (Table 2) in SBL and MBL buffers, and finally 35 μL/well was added, with a total of 22 wells. 35 μL buffer was added to wells 23 to 24. Wells 21 to well 22 served as the maximum test values (Max), while wells 23 to 24 were designated as the minimum test values (Min).
(§9) e) The 384-well plate was centrifuged quickly and incubated for 10 minutes at room temperature.
(§10) f) The antibiotic substrate FC5 was diluted in buffer to the experimental concentration of each enzyme (Table 2).
(§11) g) The incubated 384-well plate was taken out and FC-5 was added to wells […]. The 384-well plate was centrifuged rapidly and promptly transferred to a microplate reader for reading.
(§12) h) The fluorescence intensity was measured at 355 nm excitation light/460 nm emission light in the microplate reader, and the fluorescence intensity was measured every three minutes for a total of 10 measurements.
(§13) Initial velocity of enzyme reaction V: Subtract the background reading (Min wells) without enzyme from each fluorescence intensity reading, and then perform on a linear regression analysis on each compound concentration group. The slope is the initial velocity of enzyme reaction (V) at each compound concentration.
(§14) Dose-effect curve and IC50 calculation of compounds: The initial velocity of enzyme reaction under the effect of each concentration of compounds was subjected to nonlinear regression fitting. The IC50 (half-maximal inhibitory concentration) of each compound was calculated using the formula […] (Vi: the initial velocity of enzyme reaction at each compound concentration; V0: initial velocity of enzyme reaction without the compound (Max wells). The software used was Graphpad prism 8.

[2] = molecular target: T2, VIM-1 (Pseudomonas aeruginosa, UniProt A0A0F7KYQ8); assay: Enzyme activity test (FC5 fluorescent substrate), VIM-1; assay type: biochemical; conditions: enzyme 70 pM, substrate FC5 10 μM
T2 construct: purchased GenScript Biotech Co., Ltd
Description: as §1, §2, §3, §4, §5, §6, §7, §8, §9, §10, §11, §12, §13, §14

[3] = molecular target: T3, VIM-2 (Escherichia coli, UniProt Q5U7L7); assay: Enzyme activity test (FC5 fluorescent substrate), VIM-2; assay type: biochemical; conditions: enzyme 25 pM, substrate FC5 20 μM
T3 construct: purchased GenScript Biotech Co., Ltd
Description: as §1, §2, §3, §4, §5, §6, §7, §8, §9, §10, §11, §12, §13, §14

[4] = molecular target: T4, KPC-2 (Klebsiella pneumoniae, UniProt Q9F663); assay: Enzyme activity test (FC5 fluorescent substrate), KPC-2; assay type: biochemical; conditions: enzyme 45 pM, substrate FC5 25 μM
T4 construct: purchased GenScript Biotech Co., Ltd
T4 sequence (Q9F663 25-293 limits assumed): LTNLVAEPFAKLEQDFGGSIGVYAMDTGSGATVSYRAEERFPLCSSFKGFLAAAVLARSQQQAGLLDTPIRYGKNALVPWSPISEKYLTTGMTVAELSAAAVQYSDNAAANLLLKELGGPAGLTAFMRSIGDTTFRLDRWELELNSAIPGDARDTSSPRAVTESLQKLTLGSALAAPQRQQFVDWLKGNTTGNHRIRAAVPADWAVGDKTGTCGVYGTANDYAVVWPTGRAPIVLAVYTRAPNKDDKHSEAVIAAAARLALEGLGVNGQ
Description: as §1, §2, §3, §4, §5, §6, §7, §8, §9, §10, §11, §12, §13, §14

[5] = molecular target: T5, CTX-M-15 (Escherichia coli, UniProt Q9EXV5); assay: Enzyme activity test (FC5 fluorescent substrate), CTX-M-15; assay type: biochemical; conditions: enzyme 45 pM, substrate FC5 50 μM
T5 construct: purchased GenScript Biotech Co., Ltd
T5 sequence (Q9EXV5 entry or part of it): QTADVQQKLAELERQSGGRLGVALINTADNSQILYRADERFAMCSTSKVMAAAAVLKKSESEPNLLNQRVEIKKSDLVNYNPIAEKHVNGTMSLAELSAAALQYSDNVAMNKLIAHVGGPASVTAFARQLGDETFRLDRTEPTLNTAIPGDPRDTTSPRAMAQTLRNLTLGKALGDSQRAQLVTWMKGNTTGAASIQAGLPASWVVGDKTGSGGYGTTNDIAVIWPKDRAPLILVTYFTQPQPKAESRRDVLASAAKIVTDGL
Description: as §1, §2, §3, §4, §5, §6, §7, §8, §9, §10, §11, §12, §13, §14

[6] = molecular target: Ampc (UniProt P24735); assay: Enzyme activity test (FC5 fluorescent substrate), AmpC; assay type: biochemical; conditions: enzyme 25 pM, substrate FC5 15 μM
Description: as §1, §2, §3, §4, §5, §6, §7, §8, §9, §10, §11, §12, §13, §14

[7] = molecular target: T6, OXA-10 (Pseudomonas aeruginosa, UniProt P14489); assay: Enzyme activity test (FC5 fluorescent substrate), OXA-10; assay type: biochemical; conditions: enzyme 350 pM, substrate FC5 50 μM
T6 construct: purchased GenScript Biotech Co., Ltd
T6 sequence (P14489 20-266): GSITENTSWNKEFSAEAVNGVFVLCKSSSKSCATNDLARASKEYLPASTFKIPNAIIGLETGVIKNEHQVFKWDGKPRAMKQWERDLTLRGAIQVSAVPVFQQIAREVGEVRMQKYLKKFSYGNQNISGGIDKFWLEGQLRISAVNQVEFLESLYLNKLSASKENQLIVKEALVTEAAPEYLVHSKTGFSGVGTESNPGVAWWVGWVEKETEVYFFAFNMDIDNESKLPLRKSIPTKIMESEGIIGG
Description: as §1, §2, §3, §4, §5, §6, §7, §8, §9, §10, §11, §12, §13, §14

[8] = molecular target: T7, OXA-23 (Acinetobacter baumannii, UniProt Q9L4P2); assay: Enzyme activity test (FC5 fluorescent substrate), OXA-23; assay type: biochemical; conditions: enzyme 650 pM, substrate FC5 50 μM
T7 construct: purchased GenScript Biotech Co., Ltd
T7 sequence (Q9L4P2 18-273): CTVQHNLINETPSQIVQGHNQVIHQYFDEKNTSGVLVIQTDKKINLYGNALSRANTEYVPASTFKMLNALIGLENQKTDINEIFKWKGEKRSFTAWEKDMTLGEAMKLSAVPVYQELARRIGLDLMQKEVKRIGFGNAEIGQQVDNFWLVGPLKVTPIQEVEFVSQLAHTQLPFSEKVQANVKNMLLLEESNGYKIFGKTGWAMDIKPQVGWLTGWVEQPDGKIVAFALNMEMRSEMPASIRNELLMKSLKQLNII
Description: as §1, §2, §3, §4, §5, §6, §7, §8, §9, §10, §11, §12, §13, §14

[9] = test system: Escherichia coli ARLG 2829; assay: MIC test of compounds in combination with antibiotics, Escherichia coli ARLG 2829; conditions: Escherichia coli ARLG-2829 NDM-5, OXA-1
[10] = test system: Klebsiella pneumoniae ATCC BAA-2470; assay: MIC test of compounds in combination with antibiotics, Klebsiella pneumoniae ATCC BAA-2470; conditions: Klebsiella pneumoniae ATCC BAA-2470 NDM-1
Description: Strain preparation: the strains to be tested were streaked from glycerol tube at −80° C. onto Mueller Hinton II Agar plates. The plates were then placed in a 37° C. incubator and cultured for 18-24 hours.
Media preparation: CAMHB (Mueller Hinton II Broth): 22 g of powder was dissolved in 1 L of purified water and sterilized at 121° C. for 10 min for use. Saline: 8.5 g NaCl was dissolved in 1 L of pure water and sterilized at 121° C. for 30 min for use.
Preparation of compound and antibiotic stock solutions: the compound and antibiotic were dissolved in DMSO or water to 12.8 mg/mL.
(§15) 2-Fold gradient dilution of antibiotics: 300 μL of CAMHVIB medium was added to columns 2-12 of a 96-deep well plate. In column 1, 24 μL of antibiotic stock solution and 576 µL of CAMHB medium were added and mixed well, with a concentration of 512 μg/mL. 300 µL of antibiotic solution was transferred from the column 1 to the second column and mixed well. The process was repeated until column 11, and the column 12 was a blank control.
(§16) Dilution of combined compounds: the compound was diluted 400-fold to 32 μg/ml with CAMHB medium.
(§17) Working solution aliquoting: 25 μL of antibiotics was aliquoted into the 96-U bottom plate with a pipette, and 25 μL of combined compound was added to each well. If antibiotics were used alone, 25 μL of CAMHB medium was added.
(§18) Inoculum solution preparation: 5-6 single colonies were selected from the plate and suspended in normal saline. The bacterial suspension was adjusted to 0.2 (i.e., 0.5 McFarland turbidity, with a bacterial concentration was about 1 to 2×10^8 CFU/mL) with a turbidity meter. The bacterial suspension was diluted 100-fold with CAMHB medium for later use.
(§19) Inoculation: 50 μL of inoculum solution was transferred to the above 50 μL compound plate with a pipette.
(§20) Culture: The 96-U bottom plate was placed in an incubator at 37° C. for 18 to 20 h.
After the incubation, bacterial growth was visually observed, and the test plate was photographed and recorded.

[11] = test system: Klebsiella pneumoniae ATCC BAA-1705; assay: MIC test of compounds in combination with antibiotics, Klebsiella pneumoniae ATCC BAA-1705; conditions: Klebsiella pneumoniae ATCC BAA-1705 KPC-2
[12] = test system: Acinetobacter baumannii WX-AB005; assay: MIC test of compounds in combination with antibiotics, Acinetobacter baumannii WX-AB005; conditions: Acinetobacter baumannii WX-AB005
Description: as §15, §16, §17, §18, §19, §20

[13] = test system: Acinetobacter baumannii WX-AB013; assay: MIC test of compounds in combination with antibiotics, Acinetobacter baumannii WX-AB013; conditions: Acinetobacter baumannii WX-AB013
Description: as §15, §16, §17, §18, §19, §20

[14] = test system: Acinetobacter baumannii ARLG-1791 OXA-23; assay: MIC test of compounds in combination with antibiotics, Acinetobacter baumannii ARLG-1791; conditions: Acinetobacter baumannii ARLG-1791 OXA-23
Description: as §15, §16, §17, §18, §19, §20

[15] = test system: Acinetobacter baumannii ARLG-1809 OXA-23; assay: MIC test of compounds in combination with antibiotics, Acinetobacter baumannii ARLG-1809; conditions: Acinetobacter baumannii ARLG-1809 OXA-23
Description: as §15, §16, §17, §18, §19, §20

T1 sequence (P52699 19-246 limits assumed): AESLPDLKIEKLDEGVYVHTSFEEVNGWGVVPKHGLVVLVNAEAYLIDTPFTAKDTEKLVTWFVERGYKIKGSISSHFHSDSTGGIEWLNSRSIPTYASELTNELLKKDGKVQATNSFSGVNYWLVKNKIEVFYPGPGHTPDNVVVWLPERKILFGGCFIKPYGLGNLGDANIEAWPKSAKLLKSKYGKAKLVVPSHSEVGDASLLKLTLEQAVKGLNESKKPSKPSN

NCCNC1CCC(CC(=O)N[C@H]2Cc3cccc(C(=O)O)c3OB2O)CC1 (stereo partly shown) [VNRX-5133, reference compound] was tested. Which IC50 [1] did it give?
The IC50 was greater than 10000 nM.

What about the IC50 [2] of the same compound?
Its IC50 is 33 nM.

And the IC50 [3]?
Its IC50 is 4.4 nM.

And the IC50 [4]?
The IC50 was 64.2 nM.

What about the IC50 [5] of the same compound?
The IC50 was 12.4 nM.

And the IC50 [6]?
The IC50 was 857 nM.

What about the IC50 [7] of the same compound?
Its IC50 is 463 nM.

And the IC50 [8]?
The IC50 was greater than 10000 nM.

What about the MIC ([9]; Cefepime + compound (8 μg/mL)) of the same compound?
The MIC was 1 µg/mL.

What about the MIC ([9]; Meropenem + compound (8 μg/mL)) of the same compound?
Its MIC is 1 µg/mL.

What about the MIC ([10]; Cefepime + compound (8 μg/mL)) of the same compound?
Its MIC is 1 µg/mL.

What about the MIC ([10]; Meropenem + compound (8 μg/mL)) of the same compound?
The MIC was 1 µg/mL.

And the MIC ([11]; Cefepime + compound (8 μg/mL))?
The MIC was 0.25 µg/mL.

What about the MIC ([11]; Meropenem + compound (8 μg/mL)) of the same compound?
Its MIC is 0.125 µg/mL.

What about the MIC ([12]; Cefepime + compound (8 μg/mL)) of the same compound?
Its MIC is 128 µg/mL.

What about the MIC ([12]; Meropenem + compound (8 μg/mL)) of the same compound?
Its MIC is 128 µg/mL.

What about the MIC ([13]; Cefepime + compound (8 μg/mL)) of the same compound?
Its MIC is 64 µg/mL.

And the MIC ([13]; Meropenem + compound (8 μg/mL))?
The MIC was 128 µg/mL.

And the MIC ([14]; Cefepime + compound (8 μg/mL))?
Its MIC is 16 µg/mL.

What about the MIC ([14]; Meropenem + compound (8 μg/mL)) of the same compound?
The MIC was 128 µg/mL.

What about the MIC ([15]; Cefepime + compound (8 μg/mL)) of the same compound?
Its MIC is 32 µg/mL.

And the MIC ([15]; Meropenem + compound (8 μg/mL))?
The MIC was 128 µg/mL.
